Measured values from patent US20240245658A1, “TAAR1 AND SEROTONIN MODULATORS, AND PHARMACEUTICAL COMPOSITIONS, AND METHODS OF USE THEREOF” (Sunovion Pharmaceuticals Inc., priority 2021, published 2024).
Where two headings read alike, the source gives them in different places.

Tests used:
Type in all cases: cell-based
human 5-HT2A receptor = biological target: T1, human 5-HT2A receptor (Homo sapiens, UniProt P28223); test: 5HT2A Antagonism Assay (Euroscreen FAST-05051), IP-One HTRF
T1 construct: host or cells: CHO-K1
T1 sequence (P28223 whole entry): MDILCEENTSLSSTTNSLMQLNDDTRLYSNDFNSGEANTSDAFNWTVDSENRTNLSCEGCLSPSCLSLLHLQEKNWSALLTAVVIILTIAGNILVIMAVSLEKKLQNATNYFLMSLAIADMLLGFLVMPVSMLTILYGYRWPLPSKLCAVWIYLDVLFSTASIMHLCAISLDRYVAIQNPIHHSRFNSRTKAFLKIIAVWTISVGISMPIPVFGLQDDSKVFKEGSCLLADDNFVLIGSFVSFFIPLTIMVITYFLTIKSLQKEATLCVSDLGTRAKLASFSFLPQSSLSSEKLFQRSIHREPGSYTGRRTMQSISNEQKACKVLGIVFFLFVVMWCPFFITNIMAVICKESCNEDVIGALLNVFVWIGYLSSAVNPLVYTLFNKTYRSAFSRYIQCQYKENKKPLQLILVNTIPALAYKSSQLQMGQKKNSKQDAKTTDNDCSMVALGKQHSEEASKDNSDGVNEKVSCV
Method in brief: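 CHO-K1 cells expressing receptor, 20,000/well, co-incubated with test compound and reference agonist at its EC80 for 60 min at 37 °C. IP1 accumulation read by HTRF after ~1 h detection at room temperature. Compounds tested in duplicate at 0.3–10,000 nM.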

human TAAR1 receptors = biological target: T2, human TAAR1 receptors (Homo sapiens, UniProt Q96RJ0); test: TAAR1 Agonism Assay: cAMP HTRF assay for Gs coupled receptor TAAR1 (Euroscreen FAST-0987C); conditions: CHO-K1 cells expressing human TAAR1, cAMP HTRF
T2 construct: host or cells: CHO-K1
T2 sequence (Q96RJ0 1-339): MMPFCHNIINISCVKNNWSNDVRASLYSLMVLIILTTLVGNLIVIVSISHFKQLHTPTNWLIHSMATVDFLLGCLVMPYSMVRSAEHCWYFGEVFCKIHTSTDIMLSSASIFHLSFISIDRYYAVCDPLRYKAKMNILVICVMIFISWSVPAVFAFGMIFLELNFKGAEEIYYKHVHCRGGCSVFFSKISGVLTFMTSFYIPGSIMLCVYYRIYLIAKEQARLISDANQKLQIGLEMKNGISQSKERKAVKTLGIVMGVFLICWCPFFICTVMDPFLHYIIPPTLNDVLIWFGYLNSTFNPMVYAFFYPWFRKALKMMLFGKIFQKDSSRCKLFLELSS
Method in brief: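 cAMP accumulation detected by HTRF fluorescence ratio, reagents added in lysis buffer and incubated 1 h at about room temperature. Beforehand, cells (about 3,000 per well) sat with test compound at ten concentrations from 0.3 to 10,000 nM in duplicate for roughly 30 min at about room temperature; tyramine dose-response run alongside.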

human 5-HT7 receptor = biological target: T3, human 5-HT7 receptor (Homo sapiens, UniProt P34969); test: 5HT7 Antagonism Assay (Euroscreen FAST-0499C), cAMP HTRF; conditions: CHO-K1 cells expressing human 5-HT7, reference agonist at EC80, cAMP HTRF
T3 construct: host or cells: CHO-K1
T3 sequence (P34969 whole entry): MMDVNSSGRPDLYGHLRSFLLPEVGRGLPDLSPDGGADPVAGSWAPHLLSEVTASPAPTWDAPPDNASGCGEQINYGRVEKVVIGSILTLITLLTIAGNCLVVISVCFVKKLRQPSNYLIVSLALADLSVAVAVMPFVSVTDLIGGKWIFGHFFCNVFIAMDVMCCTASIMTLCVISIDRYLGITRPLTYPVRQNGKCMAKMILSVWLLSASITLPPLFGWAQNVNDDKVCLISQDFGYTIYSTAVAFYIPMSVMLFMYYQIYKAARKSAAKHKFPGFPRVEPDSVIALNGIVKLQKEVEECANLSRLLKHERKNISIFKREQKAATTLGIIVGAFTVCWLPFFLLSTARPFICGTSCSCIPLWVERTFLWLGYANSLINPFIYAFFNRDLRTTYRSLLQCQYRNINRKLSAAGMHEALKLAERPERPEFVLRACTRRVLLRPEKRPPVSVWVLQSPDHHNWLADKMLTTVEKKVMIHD
Method in brief: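 CHO-K1 cells expressing human 5-HT7, 3000 per well in Krebs-Ringer HEPES with 1 mM IBMX, were exposed for 30 minutes at room temperature to compound plus reference agonist at its EC80. cAMP was read by HTRF after 1 hour; compounds were tested in duplicate from 0.3 to 10,000 nM.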

[1] = read-out: 5-HT2A (IC50), CHO-K1 cells expressing human 5-HT2A, reference agonist at EC80, IP-One
[2] = 5-HT2A (IC50), CHO-K1 cells expressing human 5-HT2A, reference agonist at EC80, IP-One

| SMILES | IC50 (human 5-HT2A receptor; [1]) | EC50 (human TAAR1 receptors) | IC50 (human 5-HT7 receptor) | IC50 (human 5-HT2A receptor; [2]) |
| --- | --- | --- | --- | --- |
| CNCC1Cc2ccc(Cl)cc2Oc2cccnc21 (single isomer, unassigned) [Compound 127, (R*)-(7-chloro-10,11-dihydrobenzo[6,7]oxepino[3,2-b]pyridin-11-yl)-N-methylmethanamine] | < 1000 nM | < 1000 nM | 1000 to 10000 nM |  |
| Cc1ccc2c(c1)CC(CN)c1ncccc1O2 (single isomer, unassigned) [Compound 128, (S*)-(8-methyl-10,11-dihydrobenzo[6,7]oxepino[3,2-b]pyridin-11-yl)methanamine] |  | < 1000 nM | 1000 to 10000 nM | 1000 to 10000 nM |
| Cc1ccc2c(c1)CC(CN)c1ncccc1O2 (single isomer, unassigned) [Compound 129, (R*)-(8-methyl-10,11-dihydrobenzo[6,7]oxepino[3,2-b]pyridin-11-yl)methanamine] |  | < 1000 nM | < 1000 nM | < 1000 nM |
| CNCC1Cc2cc(C)ccc2Oc2cccnc21 (single isomer, unassigned) [Compound 130, (S*)—N-methyl-1-(8-methyl-10,11-dihydrobenzo[6,7]oxepino[3,2-b]pyridin-11-yl)methanamine] |  | < 1000 nM | 1000 to 10000 nM | < 1000 nM |
| CNCC1Cc2cc(C)ccc2Oc2cccnc21 (single isomer, unassigned) [Compound 131, (R*)—N-methyl-1-(8-methyl-10,11-dihydrobenzo[6,7]oxepino[3,2-b]pyridin-11-yl)methanamine] | < 1000 nM | < 1000 nM | < 1000 nM |  |
| Cc1ccc2c(c1)Oc1cccnc1C(CN)C2 (single isomer, unassigned) [Compound 132, (S*)-(7-methyl-10,11-dihydrobenzo[6,7]oxepino[3,2-b]pyridin-11-yl)methanamine] |  | < 1000 nM | ≥ 10000 nM | > 10000 nM |
| Cc1ccc2c(c1)Oc1cccnc1C(CN)C2 (single isomer, unassigned) [Compound 133, (R*)-(7-methyl-10,11-dihydrobenzo[6,7]oxepino[3,2-b]pyridin-11-yl)methanamine] |  | < 1000 nM | ≥ 10000 nM | 1000 to 10000 nM |
| CNCC1Cc2ccc(C)cc2Oc2cccnc21 (single isomer, unassigned) [Compound 134, (S*)—N-methyl-1-(7-methyl-10,11-dihydrobenzo[6,7]-oxepino[3,2-b]pyridin-11-yl)methanamine] |  | < 1000 nM | 1000 to 10000 nM | < 1000 nM |
| CNCC1Cc2ccc(C)cc2Oc2cccnc21 (single isomer, unassigned) [Compound 135, (R*)—N-methyl-1-(7-methyl-10,11-dihydrobenzo[6,7]oxepino[3,2-b]pyridin-11-yl)methanamine] | < 1000 nM | < 1000 nM | 1000 to 10000 nM |  |
| NCC1Cc2c(F)cccc2Oc2cccnc21 (single isomer, unassigned) [Compound 136, (S*)-(9-fluoro-10,11-dihydrobenzo[6,7]oxepino[3,2-b]pyridin-11-yl)methanamine] |  | < 1000 nM | ≥ 10000 nM | 1000 to 10000 nM |
| NCC1Cc2c(F)cccc2Oc2cccnc21 (single isomer, unassigned) [Compound 137, (R*)-(9-fluoro-10,11-dihydrobenzo[6,7]oxepino[3,2-b]pyridin-11-yl)methanamine] |  | < 1000 nM | ≥ 10000 nM | > 10000 nM |
| CNCC1Cc2c(F)cccc2Oc2cccnc21 (single isomer, unassigned) [Compound 138, (S*)-1-(9-fluoro-10,11-dihydrobenzo[6,7]oxepino[3,2-b]pyridin-11-yl)-N-methylmethanamine] |  | < 1000 nM | ≥ 10000 nM | < 1000 nM |
| Cc1cccc2c1CC(CN)c1ncccc1O2 (single isomer, unassigned) [Compound 140, (S*)-(9-methyl-10,11-dihydrobenzo[6,7]oxepino[3,2-b]pyridin-11-yl)methanamine] |  | < 1000 nM | ≥ 10000 nM | > 10000 nM |
| Cc1cccc2c1CC(CN)c1ncccc1O2 (single isomer, unassigned) [Compound 141, (R*)-(9-methyl-10,11-dihydrobenzo[6,7]oxepino[3,2-b]pyridin-11-yl)methanamine] |  | < 1000 nM | ≥ 10000 nM | < 1000 nM |
| CNCC1Cc2c(C)cccc2Oc2cccnc21 (single isomer, unassigned) [Compound 143, (R*)-(9-methyl-10,11-dihydrobenzo[6,7]oxepino[3,2-b]pyridin-11-yl)-N-methylmethanamine] |  | < 1000 nM | ≥ 10000 nM | < 1000 nM |
| NCC1Cc2c(Cl)cccc2Oc2cccnc21 (single isomer, unassigned) [Compound 144, (S*)-(9-chloro-10,11-dihydrobenzo[6,7]oxepino[3,2-b]pyridin-11-yl)methanamine] |  | < 1000 nM | ≥ 10000 nM | < 1000 nM |
| NCC1Cc2c(Cl)cccc2Oc2cccnc21 (single isomer, unassigned) [Compound 145, (R*)-(9-chloro-10,11-dihydrobenzo[6,7]oxepino[3,2-b]pyridin-11-yl)methanamine] | < 1000 nM | < 1000 nM | ≥ 10000 nM |  |
| CNCC1Cc2c(Cl)cccc2Oc2cccnc21 (single isomer, unassigned) [Compound 147, (R*)-(9-chloro-10,11-dihydrobenzo[6,7]oxepino[3,2-b]pyridin-11-yl)-N-methylmethanamine] |  | < 1000 nM | ≥ 10000 nM | < 1000 nM |
| Cc1ccc2c(n1)C(CN)Cc1ccccc1O2 (single isomer, unassigned) [Compound 149, (R*)-(2-methyl-10,11-dihydrobenzo[6,7]oxepino[3,2-b]pyridin-11-yl)methanamine] |  | < 1000 nM | ≥ 10000 nM | < 1000 nM |
| CNCC1Cc2ccccc2Oc2ccc(C)nc21 (single isomer, unassigned) [Compound 150, (R*)-(2-methyl-10,11-dihydrobenzo[6,7]oxepino[3,2-b]pyridin-11-yl)-N-methylmethanamine] |  | < 1000 nM | 1000 to 10000 nM | < 1000 nM |
| CCc1ccc2c(n1)C(CN)Cc1ccccc1O2 (single isomer, unassigned) [Compound 151, (R*)-(2-ethyl-10,11-dihydrobenzo[6,7]oxepino[3,2-b]pyridin-11-yl)methanamine] |  | < 1000 nM | ≥ 10000 nM | < 1000 nM |
| CCc1ccc2c(n1)C(CNC)Cc1ccccc1O2 (single isomer, unassigned) [Compound 152, (R*)-(2-ethyl-10,11-dihydrobenzo[6,7]oxepino[3,2-b]pyridin-11-yl)-N-methylmethanamine] |  | < 1000 nM | 1000 to 10000 nM | < 1000 nM |
| NCC1Cc2c(F)cncc2Oc2ccccc21 (single isomer, unassigned) [Compound 153, (R*)-(4-fluoro-5,6-dihydrobenzo[6,7]oxepino[2,3-c]pyridin-6-yl)methanamine] |  | < 1000 nM | ≥ 10000 nM | < 1000 nM |
| NCC1Cc2c(F)cncc2Oc2ccccc21 (single isomer, unassigned) [Compound 154, (S*)-(4-fluoro-5,6-dihydrobenzo[6,7]oxepino[2,3-c]pyridin-6-yl)methanamine] |  | > 10000 nM | ≥ 10000 nM | 1000 to 10000 nM |
